In patent US6656932B2, “Benzo thiadiazine matrix metalloproteinase inhibitors” (Warner-Lambert Company, priority 2001, dated 2003):

Experiments:
Type in all cases: biochemical
[1] = molecular target: MMP-3CD (catalytic domain of stromelysin-1) (Homo sapiens, UniProt P08254); test: Thiopeptolide hydrolysis assay, MMP-3CD; settings: Table 2; thiopeptolide substrate, MES buffer pH 6.0; read-out: IC50 (μM) Versus Certain MMPs: MMP03 (CD)
Protocol: (§1) The invention compounds of Formula I have been evaluated in standard assays for their ability to inhibit the catalytic activity of various MMP enzymes.
(§2) Thiopeptolide substrates show virtually no decomposition or hydrolysis at or below neutral pH in the absence of a matrix metalloproteinase enzyme.
(§3) Several representative compounds have been evaluated for their ability to inhibit various matrix metalloproteinase enzymes.
It should be appreciated that the assay buffer used with MMP-3CD was 50 mM of N-morpholinoethane sulfonate (“MES”) at pH 6.0 rather than the HEPES buffer at pH 7.0 described above.

[2] = molecular target: MMP-9FL (full-length Gelatinase B) (Homo sapiens, UniProt P14780); test: Thiopeptolide hydrolysis assay, MMP-9FL; settings: Table 2; thiopeptolide substrate, HEPES pH 7.0; read-out: IC50 (μM) Versus Certain MMPs: MMP09 (FL)
Sequence of MMP-9FL (full-length Gelatinase B) (P14780 94-707, species assumed): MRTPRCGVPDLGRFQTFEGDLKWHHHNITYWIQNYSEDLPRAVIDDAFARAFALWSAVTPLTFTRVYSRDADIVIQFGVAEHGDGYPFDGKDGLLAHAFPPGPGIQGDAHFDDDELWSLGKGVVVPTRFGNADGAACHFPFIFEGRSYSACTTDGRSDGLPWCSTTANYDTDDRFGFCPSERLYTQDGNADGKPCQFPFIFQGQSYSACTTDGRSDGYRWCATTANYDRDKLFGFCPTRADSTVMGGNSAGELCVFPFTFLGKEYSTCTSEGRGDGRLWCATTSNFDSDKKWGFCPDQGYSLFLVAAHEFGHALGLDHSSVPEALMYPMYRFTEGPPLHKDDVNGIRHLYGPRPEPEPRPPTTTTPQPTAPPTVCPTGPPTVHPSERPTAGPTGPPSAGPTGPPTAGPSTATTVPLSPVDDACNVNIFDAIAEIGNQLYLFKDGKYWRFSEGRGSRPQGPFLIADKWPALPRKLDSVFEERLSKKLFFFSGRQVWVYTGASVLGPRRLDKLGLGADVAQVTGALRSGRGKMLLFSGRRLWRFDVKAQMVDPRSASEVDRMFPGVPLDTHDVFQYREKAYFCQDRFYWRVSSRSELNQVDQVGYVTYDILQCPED
Source text: as §1, §2, §3

[3] = molecular target: MMP-13CD (catalytic domain of collagenase 3) (Homo sapiens, UniProt P45452); test: Thiopeptolide hydrolysis assay, MMP-13CD; settings: Table 2; thiopeptolide substrate, HEPES pH 7.0; read-out: IC50 (μM) Versus Certain MMPs: MMP13 (CD)
Source text: as §1, §2, §3

[4] = molecular target: T1, MMP-7FL (full-length matrilysin) (Homo sapiens, UniProt P09237); test: Thiopeptolide hydrolysis assay, MMP-7FL; settings: Table 2; thiopeptolide substrate, HEPES pH 7.0; read-out: IC50 (μM) Versus Certain MMPs: MMP07 (FL)
T1 sequence (P09237 95-267): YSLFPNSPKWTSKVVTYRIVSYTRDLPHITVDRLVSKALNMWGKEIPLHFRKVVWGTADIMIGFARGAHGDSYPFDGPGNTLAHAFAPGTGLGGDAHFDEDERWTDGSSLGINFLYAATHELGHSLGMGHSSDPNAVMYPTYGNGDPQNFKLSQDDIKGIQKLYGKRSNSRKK
Source text: as §1, §2, §3

[5] = molecular target: MMP-14CD (catalytic domain of MMP-14) (Homo sapiens, UniProt P50281); test: Thiopeptolide hydrolysis assay, MMP-14CD; settings: Table 2; thiopeptolide substrate, HEPES pH 7.0; read-out: IC50 (μM) Versus Certain MMPs: MMP14 (CD)
Source text: as §1, §2, §3

[6] = molecular target: T2, MMP-2FL (full-length Gelatinase A) (Homo sapiens, UniProt P08253); test: Thiopeptolide hydrolysis assay, MMP-2FL; settings: Table 2; thiopeptolide substrate, HEPES pH 7.0; read-out: IC50 (μM) Versus Certain MMPs: MMP02 (FL)
T2 sequence (P08253 110-660): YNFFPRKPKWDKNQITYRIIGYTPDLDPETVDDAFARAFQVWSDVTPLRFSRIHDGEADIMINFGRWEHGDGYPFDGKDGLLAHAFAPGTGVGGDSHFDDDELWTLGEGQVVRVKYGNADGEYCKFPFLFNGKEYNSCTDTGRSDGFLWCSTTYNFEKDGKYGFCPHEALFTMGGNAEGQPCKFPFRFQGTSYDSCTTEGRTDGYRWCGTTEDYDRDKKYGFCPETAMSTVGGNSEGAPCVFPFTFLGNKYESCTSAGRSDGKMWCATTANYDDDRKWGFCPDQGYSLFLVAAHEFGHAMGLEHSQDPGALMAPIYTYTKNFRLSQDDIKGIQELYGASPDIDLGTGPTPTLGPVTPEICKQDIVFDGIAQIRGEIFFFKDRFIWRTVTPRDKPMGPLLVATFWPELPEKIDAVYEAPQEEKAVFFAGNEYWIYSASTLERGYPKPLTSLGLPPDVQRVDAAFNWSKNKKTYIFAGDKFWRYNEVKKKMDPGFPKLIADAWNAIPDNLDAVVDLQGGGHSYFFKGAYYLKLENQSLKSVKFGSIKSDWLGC
Source text: as §1, §2, §3

[7] = molecular target: T3, MMP-1FL (full-length interstitial collagenase) (Homo sapiens, UniProt P03956); test: Thiopeptolide hydrolysis assay, MMP-1FL; settings: Table 2; thiopeptolide substrate, HEPES pH 7.0; read-out: IC50 (μM) Versus Certain MMPs: MMP01 (FL)
T3 sequence (P03956 100-469): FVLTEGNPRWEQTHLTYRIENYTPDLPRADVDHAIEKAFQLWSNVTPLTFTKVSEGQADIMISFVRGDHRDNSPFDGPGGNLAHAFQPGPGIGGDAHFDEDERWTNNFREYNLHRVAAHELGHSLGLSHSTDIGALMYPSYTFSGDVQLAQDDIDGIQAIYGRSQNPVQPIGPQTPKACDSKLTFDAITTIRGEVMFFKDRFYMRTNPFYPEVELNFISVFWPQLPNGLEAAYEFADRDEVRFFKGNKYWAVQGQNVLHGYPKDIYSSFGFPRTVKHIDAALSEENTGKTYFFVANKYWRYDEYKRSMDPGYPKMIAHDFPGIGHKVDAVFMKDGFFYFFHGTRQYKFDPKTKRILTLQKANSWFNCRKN
Source text: as §1, §2, §3

Sequence of MMP-3CD (catalytic domain of stromelysin-1) (P08254 100-272 limits assumed): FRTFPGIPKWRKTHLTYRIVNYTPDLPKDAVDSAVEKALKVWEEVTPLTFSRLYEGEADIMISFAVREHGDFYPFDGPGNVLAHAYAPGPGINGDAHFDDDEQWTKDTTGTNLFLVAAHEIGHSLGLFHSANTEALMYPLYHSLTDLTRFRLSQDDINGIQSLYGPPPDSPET

| Structure (SMILES) | IC50 [1] [µM] | IC50 [2] [µM] | IC50 [3] [µM] | IC50 [4] [µM] | IC50 [5] [µM] | IC50 [6] [µM] | IC50 [7] [µM] |
| --- | --- | --- | --- | --- | --- | --- | --- |
| COc1ccc(CNC(=O)c2ccc3c(c2)S(=O)(=O)N(Cc2ccccc2)C(=O)N3C)cc1 [Example 5, 2-Benzyl-4-methyl-1,1,3-trioxo-1,2,3,4-tetrahydro-1l^6-benzo[1,2,4]thiadiazine-7-carboxylic acid 4-methoxy-benzylamide] | > 30 | > 30 | 0.17 | 51 | > 30 | > 100 | > 30 |
| CN1C(=O)N(Cc2ccc(C(=O)O)cc2)S(=O)(=O)c2cc(C(=O)NCc3ccccc3)ccc21 [Example 11, 4-(7-Benzylcarbamoyl-4-methyl-1,1,3-trioxo-3,4-dihydro-H-1l^6-benzo[1,2,4]thiadiazin-2-ylmethyl)-benzoic Acid] | > 100 | > 100 | 0.066 | > 100 | > 100 | > 100 | > 100 |
| COc1ccc(CNC(=O)c2ccc3c(c2)S(=O)(=O)N(Cc2ccc(C(=O)O)cc2)C(=O)N3C)cc1 [Example 13, 4-[7-(4-Methoxy-benzylcarbamoyl)-4-methyl-1,1,3-trioxo-3,4-dihydro-1H-1l^6-benzo[1,2,4]thiadiazin-2-ylmethyl]-benzoic Acid] | 64 | > 100 | 0.011 | > 100 | > 100 | > 100 | > 100 |
